Test results taken from publication PMC11558128 (Advanced Science, 2024).
Positions count from the first letter of the chain named. Positions of bridges follow the written chain, without caps; N, C: chain ends. Residues, ends and D or L forms follow the SMILES beside them.

Key:
Experiment in all cases: cell-based
[1] = biological target: T1, hNav1.7 (Homo sapiens, UniProt Q15858); details: whole-cell patch clamp, HEK293T, hNav1.7 with β1 and β2; held at -90 mV, step to 0 mV; mean ± S.E.M., n = 3-7; SEM; read-out: IC50 for hNav1.7
T1 construct: expressed in transfected cells; host or cells: HEK293T

[2] = biological target: T2, rKv4.2 V278A (Rattus norvegicus, UniProt Q63881, V278A); details: mean ± SEM
T2 construct: expressed in transfected cells; host or cells: HEK293T
T2 sequence (Q63881 1-630 V278A): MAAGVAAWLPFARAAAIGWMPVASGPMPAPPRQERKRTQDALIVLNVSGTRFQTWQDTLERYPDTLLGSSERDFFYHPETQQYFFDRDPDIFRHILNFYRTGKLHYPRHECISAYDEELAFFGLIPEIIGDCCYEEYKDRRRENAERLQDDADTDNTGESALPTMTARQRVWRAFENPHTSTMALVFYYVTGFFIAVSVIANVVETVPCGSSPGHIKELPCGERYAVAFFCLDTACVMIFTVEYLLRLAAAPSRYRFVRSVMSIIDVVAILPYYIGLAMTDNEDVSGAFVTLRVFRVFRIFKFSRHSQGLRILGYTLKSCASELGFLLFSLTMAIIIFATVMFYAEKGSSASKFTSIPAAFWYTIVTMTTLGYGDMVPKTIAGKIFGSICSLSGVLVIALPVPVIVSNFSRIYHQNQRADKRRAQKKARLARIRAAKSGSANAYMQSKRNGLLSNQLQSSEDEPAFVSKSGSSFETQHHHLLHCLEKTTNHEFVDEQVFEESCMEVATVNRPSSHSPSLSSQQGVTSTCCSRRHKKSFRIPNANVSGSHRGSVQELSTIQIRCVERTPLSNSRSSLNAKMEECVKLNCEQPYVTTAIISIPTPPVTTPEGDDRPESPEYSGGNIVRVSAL

[3] = biological target: T3, rKv4.2 M279A (Rattus norvegicus, UniProt Q63881, M279A); details: mean ± SEM
T3 construct: expressed in transfected cells; host or cells: HEK293T
T3 sequence (Q63881 1-630 M279A): T2 sequence (Q63881 1-630 V278A) with A278V, M279A

[4] = biological target: T4, rKv4.2 D281K (Rattus norvegicus, UniProt Q63881, D281K); details: mean ± SEM
T4 construct: expressed in transfected cells; host or cells: HEK293T
T4 sequence (Q63881 1-630 D281K): T2 sequence (Q63881 1-630 V278A) with A278V, D281K

[5] = biological target: T5, rKv4.2 N282A (Rattus norvegicus, UniProt Q63881, N282A); details: mean ± SEM
T5 construct: expressed in transfected cells; host or cells: HEK293T
T5 sequence (Q63881 1-630 N282A): T2 sequence (Q63881 1-630 V278A) with A278V, N282A

T1 sequence (O60939 30-215): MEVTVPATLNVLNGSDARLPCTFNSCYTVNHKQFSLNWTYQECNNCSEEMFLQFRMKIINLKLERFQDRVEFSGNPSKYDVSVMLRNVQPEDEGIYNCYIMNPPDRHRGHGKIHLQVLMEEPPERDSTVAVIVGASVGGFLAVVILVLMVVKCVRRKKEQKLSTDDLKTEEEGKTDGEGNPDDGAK
T1 sequence (Q15858 other isoform, or with tags, fused parts or gaps): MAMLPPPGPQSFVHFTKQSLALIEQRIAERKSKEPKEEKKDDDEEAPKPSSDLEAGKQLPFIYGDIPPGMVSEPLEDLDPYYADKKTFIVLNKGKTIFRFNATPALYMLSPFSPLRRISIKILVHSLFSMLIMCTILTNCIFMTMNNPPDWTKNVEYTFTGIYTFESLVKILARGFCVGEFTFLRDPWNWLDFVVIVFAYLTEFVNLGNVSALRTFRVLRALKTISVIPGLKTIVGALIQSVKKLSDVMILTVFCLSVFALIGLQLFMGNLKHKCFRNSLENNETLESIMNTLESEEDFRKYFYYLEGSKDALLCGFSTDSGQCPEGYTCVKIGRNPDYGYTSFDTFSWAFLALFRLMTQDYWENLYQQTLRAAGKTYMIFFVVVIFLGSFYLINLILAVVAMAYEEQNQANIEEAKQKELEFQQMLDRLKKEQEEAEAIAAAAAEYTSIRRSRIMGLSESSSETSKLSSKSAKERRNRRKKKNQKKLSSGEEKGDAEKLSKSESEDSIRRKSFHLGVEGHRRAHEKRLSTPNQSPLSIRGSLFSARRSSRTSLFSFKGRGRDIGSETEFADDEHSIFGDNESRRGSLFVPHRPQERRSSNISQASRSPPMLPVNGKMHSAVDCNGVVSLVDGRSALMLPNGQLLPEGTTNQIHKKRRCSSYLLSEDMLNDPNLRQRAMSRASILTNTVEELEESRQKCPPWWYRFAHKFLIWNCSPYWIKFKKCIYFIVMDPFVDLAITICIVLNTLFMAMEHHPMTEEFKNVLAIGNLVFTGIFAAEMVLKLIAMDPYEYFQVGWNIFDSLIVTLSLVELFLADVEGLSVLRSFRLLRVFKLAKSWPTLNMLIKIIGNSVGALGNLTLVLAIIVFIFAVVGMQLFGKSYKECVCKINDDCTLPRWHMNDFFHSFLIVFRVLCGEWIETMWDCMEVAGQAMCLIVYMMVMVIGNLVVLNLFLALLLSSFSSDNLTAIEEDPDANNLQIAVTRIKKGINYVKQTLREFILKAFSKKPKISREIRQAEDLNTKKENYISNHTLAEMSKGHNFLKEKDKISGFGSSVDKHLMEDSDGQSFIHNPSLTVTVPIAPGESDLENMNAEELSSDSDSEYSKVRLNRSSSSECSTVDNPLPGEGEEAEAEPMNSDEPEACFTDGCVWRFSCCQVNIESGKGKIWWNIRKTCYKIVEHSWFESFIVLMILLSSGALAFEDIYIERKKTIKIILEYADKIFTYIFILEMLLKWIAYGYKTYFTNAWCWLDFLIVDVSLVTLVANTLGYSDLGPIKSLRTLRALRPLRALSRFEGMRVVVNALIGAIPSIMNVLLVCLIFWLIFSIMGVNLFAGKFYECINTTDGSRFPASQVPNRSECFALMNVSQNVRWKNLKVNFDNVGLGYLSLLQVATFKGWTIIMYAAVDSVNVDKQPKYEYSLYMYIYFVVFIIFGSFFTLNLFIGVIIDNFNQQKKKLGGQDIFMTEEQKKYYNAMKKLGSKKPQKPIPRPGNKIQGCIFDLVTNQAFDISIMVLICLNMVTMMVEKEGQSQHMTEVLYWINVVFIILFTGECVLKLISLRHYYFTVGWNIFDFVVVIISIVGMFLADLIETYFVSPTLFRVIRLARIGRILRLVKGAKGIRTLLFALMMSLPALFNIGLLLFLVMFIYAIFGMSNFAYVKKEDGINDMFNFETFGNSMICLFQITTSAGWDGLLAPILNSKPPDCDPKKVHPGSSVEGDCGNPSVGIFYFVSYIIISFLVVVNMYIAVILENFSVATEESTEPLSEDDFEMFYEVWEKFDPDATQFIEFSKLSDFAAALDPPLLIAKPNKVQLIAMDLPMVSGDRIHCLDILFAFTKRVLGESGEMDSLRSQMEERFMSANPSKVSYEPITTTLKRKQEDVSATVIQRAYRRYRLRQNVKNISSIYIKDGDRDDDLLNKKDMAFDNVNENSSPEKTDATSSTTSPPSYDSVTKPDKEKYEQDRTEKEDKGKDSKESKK
T1 sequence (Q07699 19-218, further chain): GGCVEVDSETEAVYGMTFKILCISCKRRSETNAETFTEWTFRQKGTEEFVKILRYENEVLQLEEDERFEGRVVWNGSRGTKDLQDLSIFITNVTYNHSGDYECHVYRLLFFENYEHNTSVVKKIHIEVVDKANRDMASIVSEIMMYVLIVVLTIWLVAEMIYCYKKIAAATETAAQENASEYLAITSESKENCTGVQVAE

Structure (SMILES): CC[C@H](C)[C@@H]1NC(=O)[C@@H]2CSSC[C@@H]3NC(=O)[C@H](C(C)C)NC(=O)[C@H](CC(C)C)NC(=O)[C@H](CC(N)=O)NC(=O)[C@@H]4CCCN4C(=O)[C@H](CCCNC(=N)N)NC(=O)[C@H](CSSC[C@H](NC(=O)[C@@H](N)CC(=O)O)C(=O)N[C@@H](CC(C)C)C(=O)NCC(=O)N[C@@H](C)C(=O)N[C@@H](Cc4ccccc4)C(=O)N[C@@H](CCCNC(=N)N)C(=O)N[C@@H](CCCCN)C(=O)N2)NC(=O)[C@H](CSSC[C@@H](C(=O)N[C@@H](CCCCN)C(=O)N[C@@H](Cc2ccc(O)cc2)C(=O)N[C@H](C(=O)N[C@@H](Cc2ccccc2)C(N)=O)C(C)C)NC(=O)[C@H](Cc2c[nH]c4ccccc24)NC(=O)[C@H](CCCNC(=N)N)NC(=O)[C@H](Cc2cnc[nH]2)NC(=O)[C@H](CC(C)C)NC(=O)[C@H](CCCNC(=N)N)NC(=O)[C@H](CO)NC3=O)NC(=O)[C@H](CCCCN)NC(=O)[C@H](CC(=O)O)NC(=O)[C@H](CC(N)=O)NC(=O)[C@H](CC(=O)O)NC(=O)[C@@H]2CCCN2C1=O [mGpTx1] (H-DCLGAFRKCIPDNDKCCRPNLVCSRLHRWCKYVF-NH2; disulfide 2-17, 9-23, 16-30)
- IC50 [1]: 8 ± 1.2 nM
- IC50 [2]: 2850 ± 1310 nM
- IC50 [3]: 16.5 ± 9.01 µM
- IC50 [4]: 320 ± 45 nM
- IC50 [5]: 17 ± 5 nM
